Measured values published in patent publication US20240358848A1, “ANTITUMOR COMPOUND AND USE THEREOF” (priority 2021, published 2024).
Read-outs that look alike come from different tables or passages of the source.

Test system: KPL-4 Cells
Test: Cell proliferation inhibition assay (CellTiter-Glo, 72 h)
Format: cell-based
Procedure: KPL-4 Cells in the logarithmic phase of growth were collected and re-suspended with fresh RPMI1640 complete cell culture medium, and adjusted to 2×10^4 cells/mL after cell counting. Cells were seeded into 96-well cell culture plates at 100 μL/well, and placed in a CO2 incubator (37° C., 5% CO2) overnight. In the next day, one of the cell culture plates were taken out, balanced to room temperature, and CellTiter-Glo reagent (Promega, USA), which was pre-balanced to room temperature and evenly mixed, was added into the plate at 100 μl/well. The plate was kept in dark for 30 min, and then luminescence value was read with a microplate reader (denoted as G0 value). The other cell culture plates were taken out and added with different concentrations of test compounds or DMSO (final concentration 0.5%) in corresponding wells. After incubated for 72 h in a CO2 incubator, the cell culture plates were balanced to room temperature and tested for cell viabilities using CellTiter-Glo reagent as described above (denoted as G3 value).
The cell proliferation rates were calculated using the following formula: Cell proliferation rate (%)=(mean of G3compound−mean of G0)/(mean of G3DMSO−mean of G0)×100.

[1] = KPL4, KPL-4, 72 h, read-out: GI50

Compound | GI50 [1] | GI50 (KPL4, 72 h)
CC[C@@]1(O)C(=O)OCc2c1cc1n(c2=S)Cc2c-1nc1cc(F)c(C)c3c1c2[C@H](NC(=O)CO)CC3 [Y] | 10.3 nM | –
CC[C@@]1(O)C(=O)OCc2c1cc1n(c2=S)Cc2c-1nc1cc(F)c(C)c3c1c2[C@@H](NC(=O)CO)CC3 [X] | 13.9 nM | –
CC[C@@]1(O)C(=O)OCc2c1cc1n(c2=O)Cc2c-1nc1cc(F)c(C)c3c1c2[C@@H](NC(=O)CO)CC3 [DXd, reference compound] | – | 72 nM
